Laboratory results published in the Deep4Chem optical property database.

Assay: photoluminescence quantum yield (fraction); solvent given as SMILES

`CCCCC(CC)CN1C(=O)C2=C(c3ccc(-c4ccc(C5=C6C(C)=CC(C)=[N+]6[B-](F)(F)n6c(C)cc(C)c65)cc4)s3)N(CC(CC)CCCC)C(=O)C2=C1c1ccc(-c2ccc(C3=C4C(C)=CC(C)=[N+]4[B-](F)(F)n4c(C)cc(C)c43)cc2)s1` (stereo not drawn) showed a photoluminescence quantum yield (in Cc1ccccc1) of 0.45.

Molecule `CC(C)(C)c1ccc(C2=C(c3ccc(N4c5ccccc5C(C)(C)c5ccccc54)cc3)S(=O)(=O)c3c2sc(-c2ccc(N4c5ccccc5C(C)(C)c5ccccc54)cc2)c3-c2ccc(C(C)(C)C)cc2)cc1` has a photoluminescence quantum yield (in C1CCOC1) of 0.021.

With `Clc1cc(Cl)c([C](c2c(Cl)cc(Cl)cc2Cl)c2c(Cl)cc(Cl)cc2Cl)c(Cl)c1` the photoluminescence quantum yield (in C1CCCCC1) was 0.008.

Work on `N#Cc1cc(C#N)c(-n2c3ccccc3c3cc(-c4ccc5c(c4)c4ccccc4n5-c4cc(-n5c6ccccc6c6ccccc65)c(C#N)cc4C#N)ccc32)cc1-n1c2ccccc2c2ccccc21` yielded a photoluminescence quantum yield (in O=P(c1ccccc1)(c1ccccc1)c1ccccc1Oc1ccccc1P(=O)(c1ccccc1)c1ccccc1) of 0.87.

`N#Cc1c(C#N)c2cc(F)ccc2c2ccc(F)cc12` showed a photoluminescence quantum yield (in ClC(Cl)Cl) of 0.08.

`Nc1n[n+]([O-])c2ccccc2[n+]1[O-]` gave a photoluminescence quantum yield (in CC#N) of 0.006 and a photoluminescence quantum yield (in O) of 0.0033.

`COc1cc(C)c(-c2cc(-c3c(C)cc(OC)cc3C)c3ccc4c(-c5c(C)cc(OC)cc5C)cc(-c5c(C)cc(OC)cc5C)c5ccc2c3c54)c(C)c1` gave a photoluminescence quantum yield (in ClCCl) of 0.38.

Work on `COc1ccc(-c2cc3c4c(c2)CCc2cc(-c5ccc(OC)cc5)cc(c2-4)CC3)cc1` yielded a photoluminescence quantum yield (in C1CCCCC1) of 0.81, a photoluminescence quantum yield (in C1CCOC1) of 0.76 and a photoluminescence quantum yield (in CC#N) of 0.6. The photoluminescence quantum yield (in CCCCCC) was 0.92, the photoluminescence quantum yield (in CCO) was 0.53 and the photoluminescence quantum yield (in CN(C)C=O) was 0.55. It also gave a photoluminescence quantum yield (in CO) of 0.45, a photoluminescence quantum yield (in Cc1ccccc1) of 1 and a photoluminescence quantum yield (in ClC(Cl)Cl) of 0.39. The photoluminescence quantum yield (in ClCCl) was 1.

Work on `Nc1ccc2c3cccc4cccc(c5cccc1c52)c43` yielded a photoluminescence quantum yield (in C1CCCCC1) of 0.55, a photoluminescence quantum yield (in C1CCOC1) of 0.58 and a photoluminescence quantum yield (in C1COCCO1) of 0.28. For the same molecule, the photoluminescence quantum yield (in CC(C)=O) was 0.5, the photoluminescence quantum yield (in CCCCOCCCC) was 0.24 and the photoluminescence quantum yield (in CCOC(C)=O) was 0.2. The photoluminescence quantum yield (in CN(C)C=O) was 0.56, the photoluminescence quantum yield (in CO) was 0.45 and the photoluminescence quantum yield (in ClCCl) was 0.47.

`CC(C)(C)c1ccc2ccc3c(C(C)(C)C)ccc4ccc1c2c43` gave a photoluminescence quantum yield (in CCCCCC) of 0.43, a photoluminescence quantum yield (in CO) of 0.54 and a photoluminescence quantum yield (in ClCCl) of 0.34.

`CC1=CC(C)=[N+]2C1=C(c1ccc(N(C)C)cc1)c1c(C)cc(C)n1[B-]2(F)F` gave a photoluminescence quantum yield (in C1CCOC1) of 0.014, a photoluminescence quantum yield (in CC#N) of 0.005 and a photoluminescence quantum yield (in CC(=O)C(C)(C)C) of 0.015. It also gave a photoluminescence quantum yield (in CC(C)=O) of 0.009, a photoluminescence quantum yield (in CCCCCC) of 0.441 and a photoluminescence quantum yield (in CCOC(C)=O) of 0.011.

Molecule `CC(=O)Nc1ccc(/C=C2\OC(=O)c3cc(N)ccc32)cc1` has a photoluminescence quantum yield (in CC#N) of 0.015, a photoluminescence quantum yield (in CC(C)=O) of 0.02 and a photoluminescence quantum yield (in CC(C)CO) of 0.032. It also gave a photoluminescence quantum yield (in CC(C)O) of 0.032, a photoluminescence quantum yield (in CCCO) of 0.03 and a photoluminescence quantum yield (in CCO) of 0.028. For the same molecule, the photoluminescence quantum yield (in CCOC(C)=O) was 0.023, the photoluminescence quantum yield (in CCOCC) was 0.04 and the photoluminescence quantum yield (in CO) was 0.02.

Molecule `CC1=CC(/C=C/c2ccc(OCCCN=[N+]=[N-])cc2)=[N+]2C1=C(c1ccc(N3CCCCC3)cc1)c1c(C)cc(C)n1[B-]2(F)F` has a photoluminescence quantum yield (in CO) of 0.81.

With `CCCCC1(c2ccc(OC)cc2)Nc2ccccc2N=C1c1ccc(OC)cc1` (stereo not drawn) the photoluminescence quantum yield (in ClC(Cl)Cl) was 0.52.

In the case of `COc1nc(Cl)nc(Nc2ccc3cc4ccccc4cc3c2)n1`, the photoluminescence quantum yield (in C1COCCO1) is reported as 0.25, the photoluminescence quantum yield (in CC#N) is reported as 0.03 and the photoluminescence quantum yield (in CCCCOCCCC) is reported as 0.25. For the same molecule, the photoluminescence quantum yield (in CCOC(C)=O) was 0.12.

`c1ccc(-c2nc3sc4ccccc4c3s2)nc1` gave a photoluminescence quantum yield (in CS(C)=O) of 0.82.

With `CC(C)(C)c1ccc2c(c1)c1cc(C(C)(C)C)ccc1n2-c1ccc(N(c2ccc(-c3ccc(-c4ccc(-c5ccc(-c6ccc(N(c7ccc(-n8c9ccc(C(C)(C)C)cc9c9cc(C(C)(C)C)ccc98)cc7)c7ccc(-n8c9ccc(C(C)(C)C)cc9c9cc(C(C)(C)C)ccc98)cc7)cc6)s5)c5nsnc45)s3)cc2)c2ccc(-n3c4ccc(C(C)(C)C)cc4c4cc(C(C)(C)C)ccc43)cc2)cc1` the photoluminescence quantum yield (in ClCCl) was 0.08.

For `CC1(C)c2cc(/C=C/c3nc(/C=C/c4ccc5c(c4)C(C)(C)c4cc(N(c6ccccc6)c6ccccc6)ccc4-5)nc(/C=C/c4ccc5c(c4)C(C)(C)c4cc(N(c6ccccc6)c6ccccc6)ccc4-5)n3)ccc2-c2ccc(N(c3ccccc3)c3ccccc3)cc21`, the photoluminescence quantum yield (in Cc1ccccc1) was 0.36.

In the case of `CCCCn1c(-c2ccc(-c3ccc(-c4ccc(-c5n(CCCC)c6ccccc6[n+]5CCCC)cc4)cc3)cc2)[n+](CCCC)c2ccccc21`, the photoluminescence quantum yield (in O) is reported as 0.77.

In the case of `COc1ccc(C2=C(c3ccc(OC)cc3)C(C)(C)c3ccccc32)cc1`, the photoluminescence quantum yield (in C1CCCCC1) is reported as 0.09.

`O=C1[C@@H]2[C@H](C(=O)N1c1ccc3cc4ccccc4cc3c1)[C@@H]1C=C[C@H]2C1` showed a photoluminescence quantum yield (in ClC(Cl)Cl) of 0.24.

For `CN(C)c1ccc(/C=C/c2nc3c4ccccc4c4ccccc4c3[nH]2)cc1`, the photoluminescence quantum yield (in C1CCOC1) was 0.055, the photoluminescence quantum yield (in C1COCCO1) was 0.176 and the photoluminescence quantum yield (in CC1CCCCC1) was 0.195. It also gave a photoluminescence quantum yield (in CC#N) of 0.058, a photoluminescence quantum yield (in CCOC(C)=O) of 0.048 and a photoluminescence quantum yield (in CCOCC) of 0.147. The photoluminescence quantum yield (in CN(C)C=O) was 0.04, the photoluminescence quantum yield (in COC(C)=O) was 0.03 and the photoluminescence quantum yield (in CS(C)=O) was 0.067. The photoluminescence quantum yield (in Cc1ccccc1) was 0.114 and the photoluminescence quantum yield (in ClC(Cl)Cl) was 0.035.
